From patent US7807678B2, “Peptidomimetics of biologically active metallopeptides” (Palatin Technologies, Inc., priority 2001, dated 2010)

Experiments:
[1] = target: T1, MC1-R (B-16 mouse melanoma cells) (Mus musculus, UniProt Q01727); assay: Competitive inhibition binding assay, 125I-NDP-α-MSH, MC1-R; conditions: for Inhibition at 1 μM MC1-R: 1 μM compound, inhibition of 125I-NDP-α-MSH binding, mean of triplicates, results less than 0% reported as 0%
T1 construct: B-16 mouse melanoma cells (containing MC1-R); endogenous in cells; host or cells: B-16 mouse melanoma cells
T1 sequence (Q01727 whole entry): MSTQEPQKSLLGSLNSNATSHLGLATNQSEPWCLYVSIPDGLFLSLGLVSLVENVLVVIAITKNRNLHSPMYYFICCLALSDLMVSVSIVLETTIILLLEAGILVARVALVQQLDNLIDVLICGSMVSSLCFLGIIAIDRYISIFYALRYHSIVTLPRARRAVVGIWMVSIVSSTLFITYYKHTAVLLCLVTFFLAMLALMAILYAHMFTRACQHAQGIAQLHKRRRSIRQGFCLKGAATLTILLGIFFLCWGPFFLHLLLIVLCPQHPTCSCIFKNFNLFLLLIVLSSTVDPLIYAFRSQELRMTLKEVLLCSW
Protocol: (§1) The competitive inhibition binding assay was conducted using membranes prepared from hMC3-R, hMC4-R, hMC5-R, and B-16 mouse melanoma cells (containing MC1-R) using 0.4 nM ^125I-NDP-α-MSH (New England Nuclear, Boston, Mass., USA) in 50 mM HEPES buffer containing 1 mM MgCl2, 2 mM CaCl2, and 5 mM KCl, at pH 7.2. The assay tube also contained a chosen concentration of the test peptidomimetic of this invention, generally 1 μM, for determining its efficacy in inhibiting the binding of ^125I-NDP-α-MSH to its receptor.
(§2) Incubation was for 90 minutes at room temperature, after which the assay mixture was filtered and the membranes washed three times with ice cold buffer. The filter was dried and counted in a gamma counter for remaining radioactivity bound to the membranes. 100% specific binding was defined as the difference in radioactivity (cpm) bound to cell membranes in the absence and presence of 1 μM α-MSH. […] Each assay was conducted in triplicate and the actual mean values are described.

MC3-R = MC3-R (Homo sapiens, UniProt P41968); assay: Competitive inhibition binding assay, 125I-NDP-α-MSH, MC3-R; parameters: expressed in transfected cells; conditions: for Inhibition at 1 μM MC3-R: 1 μM compound, inhibition of 125I-NDP-α-MSH binding, mean of triplicates, results less than 0% reported as 0%
Chain of MC3-R (P41968 whole entry): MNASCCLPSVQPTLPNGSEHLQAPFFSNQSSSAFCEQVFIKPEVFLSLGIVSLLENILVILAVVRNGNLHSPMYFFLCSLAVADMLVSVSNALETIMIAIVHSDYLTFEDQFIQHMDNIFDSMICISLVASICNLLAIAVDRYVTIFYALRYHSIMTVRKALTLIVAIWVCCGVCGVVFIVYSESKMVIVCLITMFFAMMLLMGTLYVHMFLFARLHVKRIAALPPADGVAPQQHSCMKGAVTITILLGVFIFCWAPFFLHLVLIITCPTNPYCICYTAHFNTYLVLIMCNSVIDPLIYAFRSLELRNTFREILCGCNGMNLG
Protocol: as §1, §2

MC4-R = MC4-R (Homo sapiens, UniProt P32245); assay: Competitive inhibition binding assay, 125I-NDP-α-MSH, MC4-R; parameters: expressed in transfected cells; conditions: for Inhibition at 1 μM MC4-R: 1 μM compound, inhibition of 125I-NDP-α-MSH binding, mean of triplicates, results less than 0% reported as 0%
Chain of MC4-R (P32245 whole entry): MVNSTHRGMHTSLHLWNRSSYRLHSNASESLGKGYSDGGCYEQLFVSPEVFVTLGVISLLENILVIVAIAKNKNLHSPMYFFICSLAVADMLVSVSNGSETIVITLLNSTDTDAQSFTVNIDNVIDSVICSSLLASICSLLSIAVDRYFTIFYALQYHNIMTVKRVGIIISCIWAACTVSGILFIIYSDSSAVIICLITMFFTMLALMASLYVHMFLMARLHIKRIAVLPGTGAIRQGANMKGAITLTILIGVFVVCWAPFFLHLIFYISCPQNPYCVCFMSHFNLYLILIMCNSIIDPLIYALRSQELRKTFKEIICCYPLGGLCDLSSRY
Protocol: as §1, §2

MC5-R = MC5-R (Homo sapiens, UniProt P33032); assay: Competitive inhibition binding assay, 125I-NDP-α-MSH, MC5-R; parameters: expressed in transfected cells; conditions: 1 μM compound; inhibition of 125I-NDP-α-MSH binding; mean of triplicates; results less than 0% reported as 0%
Chain of MC5-R (P33032 whole entry): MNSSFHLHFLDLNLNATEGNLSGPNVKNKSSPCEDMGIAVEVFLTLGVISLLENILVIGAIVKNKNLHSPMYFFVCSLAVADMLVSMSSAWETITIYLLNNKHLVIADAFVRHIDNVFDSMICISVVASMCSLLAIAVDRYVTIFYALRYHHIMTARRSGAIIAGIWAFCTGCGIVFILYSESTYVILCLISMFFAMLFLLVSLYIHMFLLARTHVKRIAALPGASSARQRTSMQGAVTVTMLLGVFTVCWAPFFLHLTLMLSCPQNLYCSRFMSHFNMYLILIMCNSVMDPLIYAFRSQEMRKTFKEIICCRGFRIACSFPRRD
Protocol: as §1, §2

Structure (SMILES)	Inhibition at 1 μM MC1-R [1]	Inhibition at 1 μM MC3-R (MC3-R)	Inhibition at 1 μM MC4-R (MC4-R)	Inhibition at 1 μM MC5-R (MC5-R)	inhibition at 1 µM [1]	inhibition at 1 µM (MC3-R)	inhibition at 1 µM (MC4-R)
CCCCCCC(=O)N[C@@H](COCc1ccccc1)C(=O)N[C@H](Cc1ccccc1Cl)C(=O)N1CCN(CCc2c[nH]c3ccccc23)C(=O)[C@@H]1CCCCN [Example 11]	96%	51%	99%	82%			
NCCCC[C@H]1C(=O)N(CCc2ccccc2)CCN1C(=O)[C@@H](Cc1ccc(Cl)cc1)NC(=O)[C@@H](N)COCc1ccccc1 [Example 12]	46%	39%	40%	14%			
NCCCC[C@H]1C(=O)N(CCc2ccccc2)CCN1C(=O)[C@@H](Cc1ccc(Cl)cc1)NC(=O)[C@@H]1Cc2ccccc2CN1 [Example 13]	68%	21%	66%	16%			
N=C(N)NCCC[C@H]1C(=O)N(CCc2c[nH]c3ccccc23)CCN1C(=O)[C@@H](Cc1ccc(Cl)cc1)NC(=O)[C@@H](N)COCc1ccc(Cl)cc1 [Example 15]	81%	64%	94%	90%			
N=C(N)NCCC[C@H]1C(=O)N(CCc2c[nH]c3ccccc23)CCN1C(=O)[C@@H](Cc1ccc(Cl)cc1)NC(=O)[C@@H](N)COCc1ccccc1 [Example 16]	86%	55%	96%	81%			
N=C(N)NCCC[C@H]1C(=O)N(CCc2c[nH]c3ccccc23)CCN1C(=O)[C@@H](Cc1ccccc1Cl)NC(=O)[C@@H]1Cc2ccccc2CN1 [Example 18]	95%	50%	99%	62%			
N=C(N)NCCC[C@H]1C(=O)N(CCc2c[nH]c3ccccc23)CCN1C(=O)[C@@H](Cc1ccccc1Cl)NC(=O)[C@@H]1C[C@@H](OCc2ccccc2)CN1 [Example 19]	91%	59%	99%	85%			
N=C(N)NCCC[C@H]1C(=O)N(CCc2c[nH]c3ccccc23)CCN1C(=O)[C@@H](Cc1ccccc1Cl)NC(=O)[C@@H](N)COCc1ccccc1 [Example 20]	87%	40%	98%	71%			
N=C(N)NCCCC1C(=O)N(CCc2c[nH]c3ccccc23)CCN1C(=O)C(Cc1ccccc1Cl)NC(=O)C1CCC(c2ccccc2)N1 (stereo not shown) [Example 21]	62%	22%	83%	19%			
NCCCC[C@H]1C(=O)N(CCOc2ccc3ccccc3c2)CCN1C(=O)[C@@H](Cc1ccc(Cl)cc1)NC(=O)[C@@H](N)COCc1ccccc1 [Example 29]	64%	21%	64%	72%			
NCCCC[C@H]1C(=O)N(CCOc2ccc3ccccc3c2)CCN1C(=O)[C@@H](Cc1ccc(Cl)cc1)NC(=O)[C@@H]1Cc2ccccc2CN1 [Example 30]	88%	35%	88%	65%			
NCCCC[C@H]1C(=O)N(CCc2ccc3ccccc3c2)CCN1C(=O)[C@H](N)Cc1ccc(Cl)cc1Cl [Example 35]	9%	3%	62%	4%			
CC(=O)NCCCC1C(=O)N(CCc2ccc3ccccc3c2)CCN1C(=O)C(Cc1ccc(Cl)cc1Cl)NC(=O)C(N)COCc1ccccc1 (stereo not shown) [Example 42]	13%	10%	61%	30%			
COC(=O)NCCC[C@H]1C(=O)N(CCc2ccc3ccccc3c2)CCN1C(=O)[C@@H](Cc1ccc(Cl)cc1Cl)NC(=O)[C@@H](N)COCc1ccccc1 [Example 43]	1%	0%	43%	20%			
CNC(=O)NCCC[C@H]1C(=O)N(CCc2ccc3ccccc3c2)CCN1C(=O)[C@@H](Cc1ccc(Cl)cc1Cl)NC(=O)[C@@H](N)COCc1ccccc1 [Example 45]	5%	11%	72%	31%			

More lines, now with the values ahead:

Inhibition at 1 μM MC1-R [1]	Inhibition at 1 μM MC3-R (MC3-R)	Inhibition at 1 μM MC4-R (MC4-R)	Inhibition at 1 μM MC5-R (MC5-R)	inhibition at 1 µM [1]	inhibition at 1 µM (MC3-R)	inhibition at 1 µM (MC4-R)	Structure (SMILES)
0%	12%	60%	25%				N[C@@H](COCc1ccccc1)C(=O)N[C@H](Cc1ccc(Cl)cc1Cl)C(=O)N1CCN(CCc2ccc3ccccc3c2)C(=O)[C@@H]1CCCNS(N)(=O)=O [Example 46]
0%	9%	40%	14%				CS(=O)(=O)NCCC[C@H]1C(=O)N(CCc2ccc3ccccc3c2)CCN1C(=O)[C@@H](Cc1ccc(Cl)cc1Cl)NC(=O)[C@@H](N)COCc1ccccc1 [Example 47]
2%	0%	43%	1%				NCCC[C@H]1C(=O)N(CCc2ccc3ccccc3c2)CCN1C(=O)[C@H](N)Cc1ccc(Cl)cc1Cl [Example 49]
0%	0%	0%	0%				NC(=O)CC[C@H]1C(=O)N(CCc2ccc3ccccc3c2)CCN1C(=O)[C@H](N)Cc1ccc(Cl)cc1Cl [Example 50]
28%	11%	55%	23%				NCC[C@H]1C(=O)N(CCc2ccc3ccccc3c2)CCN1C(=O)[C@H](N)Cc1ccc(Cl)cc1Cl [Example 54]
24%	14%	68%	27%				N[C@H](Cc1ccc(Cl)cc1Cl)C(=O)N1CCN(CCc2ccc3ccccc3c2)C(=O)[C@@H]1CCNC1=NCCN1 [Example 55]
21%	13%	81%	24%				N=C(N)NCC[C@H]1C(=O)N(CCc2ccc3ccccc3c2)CCN1C(=O)[C@H](N)Cc1ccc(Cl)cc1Cl [Example 56]
11%	0%	9%	5%				NC(=O)NCC[C@H]1C(=O)N(CCc2ccc3ccccc3c2)CCN1C(=O)[C@H](N)Cc1ccc(Cl)cc1Cl [Example 57]
7%	0%	0%	3%				N[C@H](Cc1ccc(Cl)cc1Cl)C(=O)N1CCN(CCc2ccc3ccccc3c2)C(=O)[C@@H]1CCCn1cncn1 [Example 58]
26%	14%	72%	30%				NCCCC[C@H]1C(=O)N(CCc2ccc3ccccc3c2)CCN1C(=O)[C@H](N)Cc1ccc2ccccc2c1 [Example 59]
				94%	9%	10%	[2H]N[C@@H](Cc1cnc[nH]1)C(=O)N[C@@H](Cc1ccccc1)C(=O)N1C2CC[C@H](COc3ccc4ccccc4c3)N2C(=O)[C@@H]1CCCCN (stereo partly shown) [Example 111]
